# Measured values published in US20100323950A1, “USE OF BETA-MELANOTROPIN AS A THERAPEUTIC AGENT, EG FOR THE TREATMENT OF AIDS OR ALZHEIMER” (priority 2007, published 2010).
# Tested on: drug-resistant Mycobacterium tuberculosis
# Conditions: Mycobacterium tuberculosis resistant to PAS, streptomycin, INH; peptide 10 micrograms per ml; seven days
structure (smiles),measurement,value
CSCC[C@H](NC(=O)[C@H](CCCNC(=N)N)NC(=O)[C@H](Cc1ccc(O)cc1)NC(=O)[C@@H]1CCCN1C(=O)CNC(=O)[C@H](CCC(=O)O)NC(=O)[C@H](CC(=O)O)NC(=O)[C@H](CCCCN)NC(=O)[C@H](CCCCN)NC(=O)[C@H](CCC(=O)O)NC(=O)[C@H](C)N)C(=O)N[C@@H](CCC(=O)O)C(=O)N[C@@H](Cc1c[nH]cn1)C(=O)N[C@@H](Cc1ccccc1)C(=O)N[C@@H](CCCNC(=N)N)C(=O)N[C@@H](Cc1c[nH]c2ccccc12)C(=O)NCC(=O)N[C@@H](CO)C(=O)N1CCC[C@H]1C(=O)N1CCC[C@H]1C(=O)N[C@@H](CCCCN)C(=O)N[C@@H](CC(=O)O)C(=O)O [Beta MSH],% inhibition,0.0%
